“And” between values parts separate entries of the source, which are not always exact repeats. Identical values can stand only once. Like-named read-outs stand apart in the source and are kept apart here.
Experiments:
[1] = molecular target: T1, SFRP-1 (Homo sapiens, UniProt Q8N474); assay: Fluorescence polarization binding assay (competitive displacement of a probe compound from SFRP-1); conditions: fluorescence anisotropy, 45 nM SFRP-1, 20 nM probe;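 further: test compound competes with a fluorescent probe held by SFRP-1, seen as a drop in probe anisotropy after incubation in darkness, with anisotropy as function of rising compound dose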
T1 sequence (Q8N474 32-314): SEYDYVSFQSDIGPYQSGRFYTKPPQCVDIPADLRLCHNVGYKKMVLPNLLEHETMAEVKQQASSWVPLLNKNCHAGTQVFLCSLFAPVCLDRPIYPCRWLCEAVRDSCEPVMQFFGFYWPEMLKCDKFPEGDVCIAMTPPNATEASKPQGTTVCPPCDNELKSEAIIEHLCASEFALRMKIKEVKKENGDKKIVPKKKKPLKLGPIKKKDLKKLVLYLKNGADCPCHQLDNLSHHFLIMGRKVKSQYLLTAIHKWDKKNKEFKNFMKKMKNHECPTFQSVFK

[2] = molecular target: T1, SFRP-1; assay: Cell-based assay for in vitro measurement of SFRP-1/SARP2 antagonist activity (U2OS cells co-transfected with 16x TCF-tk-Luciferase reporter, Wnt and hSFRP-1); conditions: for fold induction at 15 µM / fold induction at 10 µM: U2OS; for fold induction at 10 µM: read-out: Fold Induction with SFRP-1, U2OS cells, single dose 10 μM, luciferase reporter, fold induction over SFRP-1 control;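 on all read-outs here: U2OS cells co-transfected with a TCF-tk luciferase reporter, a Wnt vector, hSFRP-1 or empty vector and CMV-βgal, luciferase luminescence read in cell lysates alongside βgal activity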
[3] = read-out: Fold Induction with SFRP-1, Conc 15 μM, with SFRP-1, fold induction over SFRP-1 control, single dose
[4] = read-out: Fold Induction without SFRP-1, Conc 15 μM, without SFRP-1, single dose
[5] = read-out: Fold Induction with SFRP-1, Conc 15 μM, single dose, luciferase reporter, fold induction over SFRP-1 control, cells with SFRP-1
[6] = read-out: Fold Induction without SFRP-1, Conc 15 μM, single dose, luciferase reporter, cells without SFRP-1 (specificity control)

Row | Compound | IC50 [1] | fold induction at 15 µM [2, 3] | fold induction at 15 µM [2, 4] | fold induction at 10 µM [2] | fold induction at 15 µM [2, 5] | fold induction at 15 µM [2, 6] | EC50 [2] [µM]
1 | Cc1ccc(S(=O)(=O)c2ccc(Br)cc2)cc1S(=O)(=O)NCCc1ccccn1 [Example 381, 5-[(4-bromophenyl)sulfonyl]-2-methyl-N-(2-pyridin-2-ylethyl)benzenesulfonamide] | 4 µM | 2.1 | 0.8 |  |  |  | 
2 | Cc1ccc(S(=O)(=O)c2ccc(F)cc2)cc1S(=O)(=O)NCC(O)c1cccnc1 (stereo not shown) [Example 740, 5-[(4-fluorophenyl)sulfonyl]-N-(2-hydroxy-2-pyridin-3-ylethyl)-2-methylbenzenesulfonamide] | 6 µM |  |  | 3.3 |  |  | 
3 | CC(C)c1ccc(S(=O)(=O)c2ccc(N3CCN(C)CC3)cc2)cc1S(=O)(=O)NCCC1CCOCC1 [Example 549, 2-isopropyl-5-{[4-(4-methylpiperazin-1-yl)phenyl]sulfonyl}-N-[2-(tetrahydro-2H-pyran-4-yl)ethyl]benzenesulfonamide] | 1.6 µM and 2.9 µM |  |  |  | 3.6 | 1.5 | 
4 | CC(C)c1ccc(S(=O)(=O)c2cc(Cl)sc2Cl)cc1S(=O)(=O)NCCc1ccccn1 [Example 511, 5-[(2,5-dichloro-3-thienyl)sulfonyl]-2-isopropyl-N-(2-pyridin-2-ylethyl)benzenesulfonamide] | 1.8 µM and 2.3 µM |  |  |  | 2.8 | 0.9 | 
5 | O=S(=O)(NC1CCNCC1)c1cc(S(=O)(=O)c2ccccc2NCCO)ccc1C(F)(F)F [Example 869, 5-({2-[(2-hydroxyethyl)amino]phenyl}sulfonyl)-N-piperidin-4-yl-2-(trifluoromethyl)benzenesulfonamide] | 1.2 µM |  |  | 3.5 |  |  | 1.76
6 | Cc1ccc(S(=O)(=O)c2ccccc2)cc1S(=O)(=O)NC1CCCC1 [Example 399, N-cyclopentyl-2-methyl-5-(phenylsulfonyl)benzenesulfonamide] | 3 µM | 2.5 | 1.1 |  |  |  | 
7 | Cc1ccc(S(=O)(=O)c2ccccc2)cc1S(=O)(=O)NC1CCN(Cc2ccccc2)CC1 [Example 413, N-(1-benzylpiperidin-4-yl)-2-methyl-5-(phenylsulfonyl)benzenesulfonamide] | 5 µM | 2.2 | 1.4 |  |  |  | 
8 | COc1cccc(S(=O)(=O)c2ccc(C)c(S(=O)(=O)NCCc3ccccn3)c2)c1OC [Example 422, 5-[(2,3-dimethoxyphenyl)sulfonyl]-2-methyl-N-(2-pyridin-2-ylethyl)benzenesulfonamide] | 2.8 µM | 1.9 | 1.2 |  |  |  | 
9 | CC(C)c1ccc(S(=O)(=O)c2cccc(OC(F)(F)F)c2)cc1S(=O)(=O)NCCc1ccccn1 [Example 506, 2-isopropyl-N-(2-pyridin-2-ylethyl)-5-{[3-(trifluoromethoxy)phenyl]sulfonyl}benzenesulfonamide] | 2.4 µM |  |  |  | 2.7 | 1 | 
10 | CC(C)c1ccc(S(=O)(=O)c2ccc(F)cc2)cc1S(=O)(=O)NCCC1CCCNC1 (stereo not shown) [Example 884, 5-[(4-fluorophenyl)sulfonyl]-2-isopropyl-N-(2-piperidin-3-ylethyl)benzenesulfonamide] | 1.6 µM |  |  | 2.7 |  |  | 3.4
11 | O=S(=O)(NC[C@H](O)c1ccccc1)c1cc(S(=O)(=O)c2ccccc2)ccc1C(F)(F)F [Example 773, N-[(2R)-2-hydroxy-2-phenylethyl]-5-(phenylsulfonyl)-2-(trifluoromethyl)benzenesulfonamide] | 1.9 µM |  |  | 1.2 |  |  | 1.3
12 | O=S(=O)(NCC1(O)CCCCC1)c1cc(S(=O)(=O)c2ccccc2)ccc1C(F)(F)F [Example 868, N-[(1-hydroxycyclohexyl)methyl]-5-(phenylsulfonyl)-2-(trifluoromethyl)benzenesulfonamide] | 2.5 µM |  |  | 2.4 |  |  | 2.13

The remaining compounds from weak to strong by IC50 [1], led by results:

Row | IC50 [1] | fold induction at 15 µM [2, 3] | fold induction at 15 µM [2, 4] | fold induction at 10 µM [2] | fold induction at 15 µM [2, 5] | fold induction at 15 µM [2, 6] | EC50 [2] [µM] | Compound
13 | 1 µM |  |  | 2.3 |  |  | 2.58 | CCc1ccc(S(=O)(=O)c2ccccc2)cc1S(=O)(=O)NC1CCN(C(=O)OC(C)(C)C)CC1 [Example 909, tert-butyl 4-({[2-ethyl-5-(phenylsulfonyl)phenyl]sulfonyl}amino)piperidine-1-carboxylate]
14 | 0.9 µM |  |  | 2.1 |  |  | 1.77 | CN(CCNS(=O)(=O)c1cc(S(=O)(=O)c2ccccc2)ccc1C(F)(F)F)C(=O)NCC(=O)O [Example 888, N-({methyl[2-({[5-(phenylsulfonyl)-2-(trifluoromethyl)phenyl]sulfonyl}amino)ethyl]amino}carbonyl)glycine]
15 | 0.9 µM |  |  | 4.1 |  |  |  | CC(C)c1ccc(S(=O)(=O)c2ccccc2)cc1S(=O)(=O)NCC(O)c1cccnc1 (stereo not shown) [Example 735, N-(2-hydroxy-2-pyridin-3-ylethyl)-2-isopropyl-5-(phenylsulfonyl)benzenesulfonamide]
16 | 0.8 µM |  |  |  |  |  | 7.64 | CN(CCNS(=O)(=O)c1cc(S(=O)(=O)c2ccccc2)ccc1C(F)(F)F)C(=O)c1ccc(CP(=O)(O)O)cc1 [Example 1036, [4-({methyl[2-({[5-(phenylsulfonyl)-2-(trifluoromethyl)phenyl]sulfonyl}amino)ethyl]amino}carbonyl)benzyl]phosphonic acid]
17 | 0.8 µM |  |  |  |  |  | 0.789 | COc1ccc(S(=O)(=O)c2ccc(C(F)(F)F)c(S(=O)(=O)NC3CCNCC3)c2)cc1 [Example 999, 5-[(4-methoxyphenyl)sulfonyl]-N-piperidin-4-yl-2-(trifluoromethyl)benzenesulfonamide]
18 | 0.7 µM |  |  |  |  |  | 3.16 | CN(CCCNS(=O)(=O)c1cc(S(=O)(=O)c2ccccc2)ccc1C(F)(F)F)C(=O)CCC(=O)O [Example 992, 4-{methyl[3-({(5-(phenylsulfonyl)-2-(trifluoromethyl)phenyl]sulfonyl}amino)propyl]amino}-4-oxobutanoic acid]
19 | 0.4 µM |  |  |  | 2.5 | 1.1 |  | CC(C)c1ccc(S(=O)(=O)c2ccc(F)cc2)cc1S(=O)(=O)NC1CCN(C(=O)c2ccc(C#N)cc2)CC1 [Example 531, N-[1-(4-cyanobenzoyl)piperidin-4-yl]-5-[(4-fluorophenyl)sulfonyl]-2-isopropylbenzenesulfonamide]
20 | 0.4 µM |  |  | 3 |  |  | 1.49 | CCN(CC)C(=O)N(C)CCNS(=O)(=O)c1cc(S(=O)(=O)c2ccccc2)ccc1C(F)(F)F [Example 834, N-{2-[[(diethylamino)carbonyl](methyl)amino]ethyl}-5-(phenylsulfonyl)-2-(trifluoromethyl)benzenesulfonamide]
21 | 0.3 µM |  |  | 4.8 |  |  | 1 | O=S(=O)(NCC(O)c1cccnc1)c1cc(S(=O)(=O)c2ccccc2)ccc1C(F)(F)F (stereo not shown) [Example 741, N-(2-hydroxy-2-pyridin-3-ylethyl)-5-(phenylsulfonyl)-2-(trifluoromethyl)benzenesulfonamide]
22 | 0.16 µM |  |  | 3.8 |  |  | 1.43 | O=S(=O)(NCCc1cccnc1)c1cc(S(=O)(=O)c2cccc(Cl)c2)ccc1C(F)(F)F [Example 755, 5-[(3-chlorophenyl)sulfonyl]-N-(2-pyridin-3-ylethyl)-2-(trifluoromethyl)benzenesulfonamide]
23 | 0.15 µM |  |  | 4.4 |  |  | 1.19 | O=C(c1cc(Cl)nc(Cl)c1)N1CCC(NS(=O)(=O)c2cc(S(=O)(=O)c3ccccc3)ccc2C(F)(F)F)CC1 [Example 857, N-[1-(2,6-dichloroisonicotinoyl)piperidin-4-yl]-5-(phenylsulfonyl)-2-(trifluoromethyl)benzenesulfonamide]
24 | 0.14 µM |  |  |  |  |  | 0.231 | CS(=O)(=O)Nc1ccc(CCNS(=O)(=O)c2cc(S(=O)(=O)c3ccccc3)ccc2C(F)(F)F)cc1 [Example 987, N-(2-{4-[(methylsulfonyl)amino]phenyl}ethyl)-5-(phenylsulfonyl)-2-(trifluoromethyl)benzenesulfonamide]
25 | 0.14 µM |  |  |  |  |  | 0.217 | O=C(c1ccc(=O)[nH]c1)N1CCC(NS(=O)(=O)c2cc(S(=O)(=O)c3ccccc3)ccc2C(F)(F)F)CC1 [Example 1040, N-{1-[(6-oxo-1,6-dihydropyridin-3-yl)carbonyl]piperidin-4-yl}-5-(phenylsulfonyl)-2-(trifluoromethyl)benzenesulfonamide]
26 | 0.08 µM |  |  | 1.2 |  |  |  | O=S(=O)(NC1Cc2ccccc2C1)c1cc(S(=O)(=O)c2ccccc2)ccc1C(F)(F)F [Example 772, N-(2,3-dihydro-1H-inden-2-yl)-5-(phenylsulfonyl)-2-(trifluoromethyl)benzenesulfonamide]
27 | 0.08 µM |  |  | 3.5 |  |  | 0.733 | O=S(=O)(NCCc1ccncc1)c1cc(S(=O)(=O)c2ccccc2)ccc1C(F)(F)F [Example 771, 5-(phenylsulfonyl)-N-(2-pyridin-4-ylethyl)-2-(trifluoromethyl)benzenesulfonamide]

Source: US20060276464A1, “Diarylsulfone sulfonamides and use thereof” (Wyeth, priority 2005, published 2006)
